Reference: patent US11278584B2, “Pharmaceutical composition for preventing and treating senile dementia and preparation method thereof” (priority 2014, dated 2022)
Where a name gives a salt, the structure may show the parent alone.

Experiments:
[1] = system: Scop induced dysmnesia model rats; test: Morris water maze test, scopolamine-induced dysmnesia model rats; format: in vivo, SD Male rats; conditions: intragastric 2 weeks, compositions 11.08 g raw medicinal materials/kg, Donepezil 1.17 mg/kg
Description: (§1) Animals: SD Male rats, available from Da Shuo Biological Technology Co. LTD, Chengdu City, China, were used. 2. Testing Method
(§2) Rats were randomly divided into Normal control group, Scop Model group, Positive control group (Donepezil, 1.17 mg/kg) and Experimental group (administered with a pharmaceutical composition of Example 1 in an amount of 11.08g raw medicinal materials per kg body weight). Before experiments, rats were fed by intragastric administration for 2 weeks. The normal control group and the model group were fed the same volume of distilled water. On day 9, rats were trained in the pool of Morris 2 times per day. On day 14, rats were subjected to do Morris water Maze and jump platform testing.
(§3) On experiment day, rats were intragastrically administered. 30 Minutes later, they were administered with scopolamine hydrobromide (HBr) by intraperitoneal injections (2 mg·kg^−1 for two days and then 1 mg·kg^−1 on day 3). 20 Minutes later, rats were subjected to Morris water Maze testing. […] Their swimming performance was tracked and recorded by a camera. The travel path, time spent and speed of movement of rats in 90 s were recorded by a computer automatically, and the swimming distance and escape latency for finding the platform were calculated. […] The first step down latency (SDL) and escape latency (the time required to escape from electric shock, EL) of rats were recorded.

[2] = system: Scop induced dysmnesia model rats; test: Jump platform test, scopolamine-induced dysmnesia model rats; format: in vivo, SD Male rats; conditions: intragastric 2 weeks, compositions 11.08 g raw medicinal materials/kg, Donepezil 1.17 mg/kg
Description: as §1, §2, §3

[3] = system: Scop induced dysmnesia model mice; test: Morris water maze test, scopolamine-induced dysmnesia model mice; format: in vivo; conditions: KM mice, intragastric 2 weeks, compositions 31.66 g raw medicinal materials/kg (J: high dosage), Donepezil 1.67 mg/kg
Description: Animals: KM mice, available from Da Shuo Biological Technology Co. LTD, Chengdu City, China, were used.
Before experiments, mice of experimental group were fed by intragastric administration of a pharmaceutical composition for 2 weeks, while the normal control group and the model group were fed the same volume of distilled water. On day 9, mice were trained in the pool of Morris, 2 times per day. On day 14, mice were subjected to Morris water Maze testing.
On experiment day, mice were fed by intragastric administration. 30 Minutes later, they were administered with Scop in a dosage of 3 mg·kg^−1 via intraperitoneal injection. 20 Minutes later, the mice were subjected to Morris water Maze testing. The normal control group was intraperitoneally injected with the same volume of saline. The swimming performance of mice were tracked and recorded by a camera. The travel path, time spent and speed of movement of mice in 300 s were recorded by a computer automatically. The maximum latency was set as 300 s. The recording stopped after 300 s. The escape latency and swimming distance for looking for the platform were recorded.

COc1cc2c(cc1OC)C(=O)C(CC1CCN(Cc3ccccc3)CC1)C2 (stereo not drawn) [Positive control, Donepezil Hydrochloride]
Escape latency ([1]; model control 49.63): 37.27 s
Distance (cm) ([1]; model control 2173.42): 1647.50 cm
SDL(s) (first step down latency) ([2]; model control 16.04): 28.67 s
EL(s) (escape latency from electric shock) ([2]; model control 130.63): 109.17 s
Escape latency ([3]; model control 176.54): 141.42 s
Swimming Distance (cm) ([3]; model control 3646.54): 2738.70 cm
